How the values were obtained:
HPK1 = HPK1 immune complex in vitro kinase (IVK) assay, endogenous HPK1 from treated Jurkat cells; type: cell-based, human; details: for HPK1 kinase activity (IVK) after phosphatase inhibitor: Jurkat cells, 10 min at 37° C., 100 nM calyculin A, 10 nM okadaic acid, 2 μg/ml cyclosporine A, 10 nM pervanadate; for PGE2-induced HPK1 activity: Jurkat cells pretreated with 10 μM H-89, then PGE2
[1] = molecular target: HA-tagged murine HPK1 point mutant R169K (UniProt P70218)
[2] = molecular target: HA-tagged murine HPK1 point mutant R168K (UniProt P70218)
[3] = molecular target: HA-tagged murine HPK1 point mutant S171A (UniProt P70218)

For `C=C1[C@@H](O)[C@@H]2O[C@]3(CC[C@H](/C=C/[C@@H](C)[C@@H]4CC(C)=C[C@@]5(O[C@H](C[C@@](C)(O)C(=O)O)CC[C@H]5O)O4)O3)CC[C@H]2O[C@@H]1[C@@H](O)C[C@H](C)[C@H]1O[C@@]2(CCCCO2)CC[C@H]1C` [okadaic acid], which “HPK1 kinase activity (IVK) after phosphatase inhibitor” value (HPK1) is on record?
The value was “activated HPK1 kinase activity”.

With pervanadate as the compound, how does the “HPK1 kinase activity (IVK) after phosphatase inhibitor” value (HPK1) read?
The value was “induced a response in HPK1 catalytic activity”.

What does the source list for “cAMP-dependent protein kinase A (PKA), endogenous in Jurkat T cells”?
HPK1 kinase activity (IVK assay) in response to PGE2 stimulation [1]: Arginine to lysine mutations at either residue 168 or 169 of HPK1 reduced the responsiveness to PGE2 stimulation by approximately 90%; HPK1 kinase activity (IVK assay) in response to PGE2 stimulation [2]: Arginine to lysine mutations at either residue 168 or 169 of HPK1 reduced the responsiveness to PGE2 stimulation by approximately 90%; HPK1 kinase activity (IVK assay) in response to PGE2 stimulation [3]: mutation of serine 171 ablated the response of HPK1 to PGE2 stimulation signals

With `O=S(=O)(NCCNC/C=C/c1ccc(Br)cc1)c1cccc2cnccc12` [H-89] as the compound, how does the “PGE2-induced HPK1 activity” value (HPK1) read?
Its value is “blocked”.

What about the “PGE2-induced HPK1 activity” value (HPK1; listed as H89) of the same compound?
The value was “blocks PGE2-induced HPK1 activation”.

With `COC[C@@H]([C@H](O)[C@H](O)C(=O)NCC[C@H](C)c1nc(/C=C/C[C@@H]2O[C@]3(C[C@@H](O)[C@@H]2C)O[C@H]([C@H](C[C@H](O)[C@H](C)[C@H](O)[C@H](C)/C=C(C)/C(C)=C/C=C/C(C)=C\C#N)OC)[C@H](OP(=O)(O)O)C3(C)C)co1)N(C)C` [calyculin A] as the compound, how does the “HPK1 kinase activity (IVK) after phosphatase inhibitor” value (HPK1) read?
The value was “activated HPK1 kinase activity”.

For cholera toxin, which “HPK1 kinase activity (IVK) after PKA activator” value (HPK1) is on record?
The value was “robustly induced HPK1 kinase activity”.
